According to the NIST ThermoML archive (doi:10.1016/j.jct.2016.11.024):
Numbers after ± are expanded uncertainties.

Details: Liquid, Ebulliometric method (Recirculating still)

SMILES	vapor or sublimation pressure (389.1 K) [kPa]	vapor or sublimation pressure (412.93 K) [kPa]	vapor or sublimation pressure (424.43 K) [kPa]	vapor or sublimation pressure (356.53 K) [kPa]	vapor or sublimation pressure (380.5 K) [kPa]	vapor or sublimation pressure (391.77 K) [kPa]
CCCCCCCCCC(=O)OC [methyl decanoate]	2 ± 0.2	6 ± 0.61	10 ± 1	–	–	–
CCCCCCCC(=O)OC [methyl octanoate]	–	–	–	2 ± 0.2	6 ± 0.61	10 ± 1
